Test results as given in US11590105B2, “Intrathecal administration of levetiracetam” (Sintetica S.A., priority 2019, dated 2023).

Assay: Osmolality of various concentrations of levetiracetam in water
Assay type: physicochemical
Source text: Sodium chloride and other halide salts that affect the tonicity of the solution are preferably omitted from the formulations and unnecessary because levetiracetam itself yields an isotonic (or slightly above isotonic) formulation in the formulations of the present invention. The following table gives the osmolality of various concentrations of levetiracetam in water: […]

Osmolality (levetiracetam conc. 2.75 mg/ml in water): 16 mOsm/kg | Osmolality (levetiracetam conc. 45 mg/ml in water): 262 mOsm/kg | Osmolality (levetiracetam conc. 50 mg/ml in water): 292 mOsm/kg | Osmolality (levetiracetam conc. 60 mg/ml in water): 348 mOsm/kg | Osmolality (levetiracetam conc. 65 mg/ml in water): 377 mOsm/kg
Compound: CC[C@@H](C(N)=O)N1CCCC1=O [Levetiracetam, (−)-(S)-α-ethyl-2-oxo-1-pyrrolidine acetamide]
